From patent US10273283B2, “Modified integrin polypeptides, modified integrin polypeptide dimers, and uses thereof” (THE CHILDREN'S MEDICAL CENTER CORPORATION, priority 2014, dated 2019)
Ends that are not written are not given here.

Key:
αvβ3 headpiece = target: T1, αvβ3 headpiece (Homo sapiens, UniProt P05106+P06756, M430C/Q293C); experiment: Competition binding with FITC-[…] by fluorescence anisotropy, αvβ3 headpiece; details: FIG. 1D
T1 construct: The αv headpiece (residues 1-594) with M400C mutation was followed by a 3C protease site; β6 headpiece residues 1-474 with I270C or β3 headpiece residues 1-472 with Q267C were followed by the 3C site; 3C protease site (C, cleaved yes); ACID coiled-coil (C, cleaved yes); Strep-II tag (C, cleaved yes); His tag (C, cleaved yes); 3C site (C, cleaved yes); BASE coiled-coil (C, cleaved yes); made in house; host or cells: HEK293s Gnt I- cells
Description: (§1) Ligands bind to the integrin headpiece, which contains the α-subunit β-propeller domain and thigh domain, and the β-subunit βI, hybrid, PSI, and EGF1 domain. […] (SEQ ID NO: 68), peptide affinity for the αvβ6 and αvβ3 headpiece was measured with fluorescence anisotropy.
(§2) Binding affinities were calculated as described in Ref. 23. […] Competition binding assays used 200 nM αvβ6 or 4 μM αvβ3 headpiece, 5 nM of fluorescence probe, and competing peptide serially diluted in 3-fold decrement from 500 μM to 0.5 nM.

integrin αvβ6 headpiece = target: T2, integrin αvβ6 headpiece (Homo sapiens, UniProt P06756+P18564, I287C/M430C); experiment: Saturation binding of fluorescence probe to αvβ6 headpiece by fluorescence anisotropy; details: buffer at indicated pH, FIG. 2C
T2 construct: The αv headpiece (residues 1-594) with M400C mutation was followed by a 3C protease site; β6 headpiece residues 1-474 with I270C or β3 headpiece residues 1-472 with Q267C were followed by the 3C site; 3C protease site (C, cleaved yes); ACID coiled-coil (C, cleaved yes); Strep-II tag (C, cleaved yes); His tag (C, cleaved yes); 3C site (C, cleaved yes); BASE coiled-coil (C, cleaved yes); made in house; host or cells: HEK293s Gnt I- cells
Description: A fluorescence probe for integrin αvβ6, the sequence of which is FITC-[…] (SEQ ID NO: 68), was synthesized. […] By competition binding assay, the affinities of Different Ligands were Measured.
Fluorescence anisotropy was in 150 mM NaCl, 1 mM Mg^2+/Ca^2+, 20 mM HEPES, pH 7.4 or buffer at indicated pH with 5 nM fluorescence probe (FITC-pro-TGF-β3 peptide, FITC-[…] (SEQ ID NO: 68)). Binding affinities were calculated as described in Ref. 23. In saturation binding assays, the anisotropy of the fluorescence probe was measured while αvβ6 headpiece (starting at 2.67 μM) or αvβ3 headpiece (starting at 75 μM) was serially diluted in 3-fold decrements. Competition binding assays used 200 nM αvβ6 or 4 μM αvβ3 headpiece, 5 nM of fluorescence probe, and competing peptide serially diluted in 3-fold decrement from 500 μM to 0.5 nM.

αvβ6 headpiece = target: T3, αvβ6 headpiece (Homo sapiens, UniProt P06756+P18564, I287C/M430C); experiment: Competition binding with FITC-[…] by fluorescence anisotropy, αvβ6 headpiece; details: FIG. 1C
T3 construct: The αv headpiece (residues 1-594) with M400C mutation was followed by a 3C protease site; β6 headpiece residues 1-474 with I270C or β3 headpiece residues 1-472 with Q267C were followed by the 3C site; 3C protease site (C, cleaved yes); ACID coiled-coil (C, cleaved yes); Strep-II tag (C, cleaved yes); His tag (C, cleaved yes); 3C site (C, cleaved yes); BASE coiled-coil (C, cleaved yes); made in house; host or cells: HEK293s Gnt I- cells
Description: as §1, §2

| Fold lower affinity for αvβ3 than for αvβ6 (αvβ3 headpiece) | Fold lower affinity for αvβ6 than the pro-TGF-β1/β3 peptides (αvβ6 headpiece) | Sequence | Effect of pH on affinity of αvβ6 for the peptide (integrin αvβ6 headpiece) |
| --- | --- | --- | --- |
| 1,000 fold |  | GRGDLGRLK [pro-TGF-β3 nonapeptide, GRGDLGRLK (SEQ ID NO: 75)] | sharp decrease in affinity between pH 7 and 6 |
|  | 1,000 fold | TSGDQKTIK [pro-TGF-β2 peptide] |  |
